Some test systems named below: OVCAR-5; 786-0; RXF 393; A549; RPMI-8226; SK-MEL-2; HCT-15; SK-MEL-5; K562; SF-268; COLO 205; UO-31; CAKI-1; SK-MEL-28; MDA-N; A498; PC-3; HCC 2998; SF-539; NCI-H23.
What all share (assay): NCI-60 cell line screen, 48 h

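96-well plates; 48 h exposure; 5 concentrations. Endpoints by linear interpolation between flanking doses. Not reached: highest tested concentration assigned. The concentration for 50% growth inhibition is given as GI50.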 The source made the active and inactive calls. No stated cut-off is given here; in the data, active = GI50 up to about 1.1 µM and inactive = higher.

As to `NS(=O)(=O)c1ccc(NC(=O)c2cccc3cc4ccccc4nc23)cc1`, the GI50 is > 96.2 µM (inactive) with OVCAR-5; 12.8 µM (inactive) with 786-0; 17.7 µM (inactive) in the assay with RXF 393; 10 µM (inactive) in the assay with A549; 8.32 µM (inactive) in the assay with RPMI-8226; > 100 µM (inactive) in the assay on SK-MEL-2. Moreover, the GI50 with HCT-15 is 12.6 µM; in the assay with SK-MEL-5 it was 17.3 µM (inactive); with K562 it was 30.1 µM (inactive); in the assay on SF-268 it was 56.9 µM (inactive); in the assay on COLO 205 it was 12.2 µM (inactive); with UO-31, 8.07 µM (inactive). Besides, the GI50 with CAKI-1 was 10.1 µM (inactive); in the assay on SK-MEL-28, > 91 µM (inactive); in the assay with MDA-N, 13 µM (inactive); with A498, > 43.7 µM (inactive); in the assay with PC-3, 37.3 µM (inactive); in the assay with HCC 2998, > 100 µM (inactive). For the same molecule, the GI50 in the assay with SF-539 is 13.8 µM (inactive); with NCI-H23, 20.5 µM (inactive).

With `CC(C)(C)[Si](C)(C)OCC1OC(n2ccc(=O)[nH]c2=O)C(O[Si](C)(C)C(C)(C)C)/C1=N/O` (stereo not given), the GI50 in the assay on OVCAR-5 was 3.9 µM (inactive); in the assay on 786-0, 2.64 µM (inactive); in the assay with RXF 393, 8.39 µM (inactive); with A549, 3.14 µM (inactive); in the assay on RPMI-8226, 2.73 µM (inactive); in the assay with SK-MEL-2 it was 3.21 µM (inactive). The GI50 was 3.26 µM in the assay with HCT-15; 2.45 µM (inactive) with SK-MEL-5; 2.77 µM (inactive) in the assay with K562; 2.42 µM (inactive) in the assay with COLO 205; 3.61 µM (inactive) in the assay with UO-31; 7.71 µM (inactive) in the assay on CAKI-1. The GI50 was 3.3 µM (inactive) with SK-MEL-28; 4.08 µM (inactive) in the assay with MDA-N; 4.97 µM (inactive) in the assay with A498; 3.99 µM (inactive) in the assay with PC-3; 3.37 µM (inactive) in the assay with HCC 2998; 3.11 µM (inactive) in the assay with SF-539. Besides, the GI50 in the assay on NCI-H23 was 3.44 µM (inactive).

In the case of `NS(=O)(=O)c1ccc(NCc2cccc3c(=O)c4ccc(Cl)cc4oc23)cc1`, the GI50 with OVCAR-5 was > 100 µM (inactive); in the assay on 786-0, > 58.5 µM (inactive); in the assay on RXF 393, 27.1 µM (inactive); in the assay with A549, > 86.1 µM (inactive); in the assay on RPMI-8226, 24 µM (inactive); with SK-MEL-2, 68.7 µM (inactive). Also, the GI50 is 11.5 µM in the assay on HCT-15; 59.4 µM (inactive) with SK-MEL-5; 12.5 µM (inactive) with K562; 19.5 µM (inactive) in the assay on SF-268; 55.1 µM (inactive) in the assay with COLO 205; 25.5 µM (inactive) in the assay on UO-31. Also, the GI50 with CAKI-1 is 41 µM (inactive); with SK-MEL-28 it was > 79.8 µM (inactive); in the assay with MDA-N it was 23.1 µM (inactive); in the assay on A498 it was > 75.3 µM (inactive); with PC-3, 31 µM (inactive); in the assay with HCC 2998 it was > 82.4 µM (inactive). Also, the values for the GI50 in the assay on SF-539 and in the assay on NCI-H23 were 14.2 µM (inactive) and 31.5 µM (inactive), respectively.

As for `NC1=Nc2ccccc2Sc2nccn21`, the GI50 in the assay with OVCAR-5 is 48.8 µM (inactive); with 786-0, 24.6 µM (inactive); with RXF 393, 25.8 µM (inactive); in the assay on A549, 41.7 µM (inactive); in the assay with RPMI-8226 it was 18.2 µM (inactive); with SK-MEL-2, 32.7 µM (inactive). Also, the GI50 was 25.2 µM with HCT-15; 16.5 µM (inactive) in the assay on SK-MEL-5; 19.6 µM (inactive) in the assay on K562; 30.2 µM (inactive) with SF-268; 15.4 µM (inactive) with COLO 205; 23.9 µM (inactive) in the assay on UO-31. For the same molecule, the GI50 is 27.4 µM (inactive) in the assay with CAKI-1; 35.8 µM (inactive) with SK-MEL-28; 23 µM (inactive) in the assay with MDA-N; 28.2 µM (inactive) with A498; 22.6 µM (inactive) in the assay on PC-3; 21 µM (inactive) in the assay on HCC 2998. The GI50 in the assay on SF-539 and in the assay with NCI-H23 was 23.9 µM (inactive) each time.

As to `COC(=O)C1(O)c2ccccc2N=C2C(=O)c3ccccc3N21` (stereo not given) [METHYLISATOID], the GI50 in the assay with OVCAR-5, in the assay with 786-0, in the assay on RXF 393, in the assay with A549, with RPMI-8226 and with SK-MEL-2 was > 100 µM (inactive) in each case. Further, the GI50 with HCT-15 is more than 100 µM; with SK-MEL-5, 49.8 µM (inactive); in the assay with K562, > 100 µM (inactive); in the assay with SF-268 it was > 100 µM (inactive); with COLO 205 it was > 100 µM (inactive); in the assay on UO-31 it was > 100 µM (inactive). Besides, the GI50 was > 100 µM (inactive) in the assay with CAKI-1; > 100 µM (inactive) in the assay with SK-MEL-28; 15.7 µM (inactive) in the assay with MDA-N; > 100 µM (inactive) in the assay with A498; 36.6 µM (inactive) in the assay on PC-3; > 100 µM (inactive) in the assay with HCC 2998. The GI50 in the assay on SF-539 and in the assay with NCI-H23 was > 100 µM (inactive) throughout.

For the molecule `C=CC1C(OC2OC(CO)C(O)C(O)C2O)OC=C(C(=O)OC)C1CC1CC(=O)CC(CCc2ccc(O)cc2)O1` (stereo not given), the GI50 in the assay on OVCAR-5, in the assay on 786-0, with RXF 393, in the assay with A549, in the assay with RPMI-8226 and in the assay on SK-MEL-2 was > 100 µM (inactive) each time. The GI50 in the assay on HCT-15 is more than 100 µM; in the assay on SK-MEL-5, > 100 µM (inactive); with K562 it was > 100 µM (inactive); in the assay with SF-268 it was > 100 µM (inactive); in the assay with COLO 205 it was > 100 µM (inactive); in the assay on UO-31 it was > 100 µM (inactive). Besides, the GI50 in the assay on CAKI-1, in the assay on SK-MEL-28, in the assay on MDA-N, with A498, with PC-3 and in the assay with HCC 2998 was > 100 µM (inactive) each time. For the same molecule, the GI50 in the assay on SF-539 and in the assay with NCI-H23 was > 100 µM (inactive) each time.

On to `Cc1cn(C2CC(n3cc(Cn4cc(Br)c(=O)[nH]c4=O)nn3)C(CO)O2)c(=O)[nH]c1=O` (stereo not given), for which the GI50 in the assay on OVCAR-5 is > 100 µM (inactive); in the assay on 786-0, 93.1 µM (inactive); in the assay with RXF 393, > 100 µM (inactive); in the assay with A549, > 100 µM (inactive); in the assay on RPMI-8226, 52.6 µM (inactive); in the assay with SK-MEL-2, > 100 µM (inactive). In addition, the GI50 was more than 100 µM in the assay on HCT-15; 89.5 µM (inactive) with SK-MEL-5; > 100 µM (inactive) in the assay with SF-268; > 100 µM (inactive) in the assay on COLO 205; 88.1 µM (inactive) in the assay with UO-31; > 100 µM (inactive) with CAKI-1. The GI50 with SK-MEL-28 is > 100 µM (inactive); in the assay with MDA-N, 62.2 µM (inactive); in the assay on A498, > 100 µM (inactive); in the assay on PC-3 it was > 100 µM (inactive); with HCC 2998, > 100 µM (inactive); in the assay on SF-539 it was > 100 µM (inactive). For the same molecule, the GI50 in the assay with NCI-H23 was > 100 µM (inactive).

For `CC(=O)NNc1nc(C)c(C(/C=C/c2ccccc2O)=N/NC(=O)c2ccncc2)s1`, the GI50 with OVCAR-5, in the assay on 786-0, in the assay with RXF 393, in the assay with A549, in the assay on RPMI-8226 and with SK-MEL-2 was > 100 µM (inactive) throughout. Besides, the GI50 with HCT-15 is more than 100 µM; with SK-MEL-5 it was > 100 µM (inactive); with SF-268, > 100 µM (inactive); with COLO 205, > 100 µM (inactive); with UO-31, > 100 µM (inactive); in the assay on CAKI-1, > 100 µM (inactive). Also, the GI50 in the assay on SK-MEL-28, with MDA-N, in the assay with A498, with PC-3, in the assay on HCC 2998 and in the assay with SF-539 was > 100 µM (inactive) in each case. Moreover, the GI50 in the assay with NCI-H23 is > 100 µM (inactive).

Regarding `C[C@H](CCC(=O)O)[C@H]1CC[C@H]2[C@@H]3[C@H](O)[C@H](O)[C@@H]4C[C@H](O)CC[C@]4(C)[C@H]3CC[C@]12C` [HYOCHOLIC ACID], the GI50 in the assay on OVCAR-5, with 786-0, with RXF 393, in the assay with A549, with RPMI-8226 and with SK-MEL-2 was > 100 µM (inactive) each time. In addition, the GI50 is more than 100 µM in the assay on HCT-15; > 100 µM (inactive) with K562; > 100 µM (inactive) in the assay on SF-268; > 100 µM (inactive) with COLO 205; > 100 µM (inactive) in the assay with UO-31; > 100 µM (inactive) in the assay on CAKI-1. Further, the GI50 in the assay on SK-MEL-28, in the assay with MDA-N, in the assay with A498, in the assay with PC-3, in the assay with HCC 2998 and with SF-539 was > 100 µM (inactive) each time. Moreover, in the assay on NCI-H23, the GI50 was > 100 µM (inactive).

For the molecule `CCCCC[C@@H]1OCO[C@@]2(C)/C=C(C)\C=C/C(=O)O[C@H]([C@@H](C)[C@@H](O)[C@H](C)[C@@]3(O)C[C@@H](O[C@H]4C[C@@H](O)[C@H](O)[C@@H](C)O4)[C@H](C)[C@@H](C)O3)[C@@H](OC)/C=C\C=C(\C)C[C@@H]1[C@@H]2O` (stereo in doubt), the GI50 in the assay on OVCAR-5, in the assay with 786-0, in the assay with RXF 393, in the assay on A549, in the assay on RPMI-8226 and in the assay with SK-MEL-2 was < 0.005 µM (active) each time. Also, the GI50 is 0.5 µM in the assay with HCT-15; < 0.005 µM (active) with SK-MEL-5; < 0.005 µM (active) with K562; < 0.005 µM (active) in the assay on SF-268; < 0.005 µM (active) in the assay on COLO 205; < 0.005 µM (active) with CAKI-1. The GI50 with SK-MEL-28 is 0.0724 µM (active); in the assay on MDA-N, < 0.005 µM (active); in the assay with A498, < 0.005 µM (active); in the assay on PC-3, < 0.005 µM (active); in the assay with HCC 2998, < 0.005 µM (active); with SF-539, < 0.005 µM (active). For the same molecule, the GI50 in the assay with NCI-H23 is 0.5 µM (active).
